PMC8230073, “The Role of Anthocyanins, Deoxyanthocyanins and Pyranoanthocyanins on the Modulation of Tyrosinase Activity: An In Vitro and In Silico Approach” (International Journal of Molecular Sciences, 2021)
Read-outs that look alike come from different tables or passages of the source.

Legend:
[1] = pH 7.4, cited from earlier work; for fraction in quinoidal base form: 7-A^− and 8-A, ref [20],[22]
mushroom tyrosinase [2] = target: T1, mushroom tyrosinase (Agaricus bisporus, UniProt C7FF04); test: Mushroom tyrosinase inhibition assay (L-DOPA oxidation to dopachrome); assay type: biochemical
T1 construct: purchased Sigma Aldrich T3824-250 KU
T1 sequence (C7FF04 1-392): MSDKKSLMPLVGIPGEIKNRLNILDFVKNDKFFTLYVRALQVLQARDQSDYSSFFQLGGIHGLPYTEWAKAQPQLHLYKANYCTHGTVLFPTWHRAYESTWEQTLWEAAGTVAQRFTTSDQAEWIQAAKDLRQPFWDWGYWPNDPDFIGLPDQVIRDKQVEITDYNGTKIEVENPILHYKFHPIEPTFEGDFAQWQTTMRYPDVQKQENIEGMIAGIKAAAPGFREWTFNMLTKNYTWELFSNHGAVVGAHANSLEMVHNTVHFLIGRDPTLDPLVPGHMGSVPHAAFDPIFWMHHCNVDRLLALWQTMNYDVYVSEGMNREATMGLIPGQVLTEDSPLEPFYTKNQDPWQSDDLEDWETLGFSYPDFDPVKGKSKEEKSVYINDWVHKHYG
Experimental: Both were dissolved in 20 mM phosphate buffer solution, pH 6.8. First, 20 µL from a freshly prepared stock solution of mushroom tyrosinase (270 U/mL) and 75 µL of test compounds stock solutions (20 mM PBS, pH 6.8) were mixed and pre-incubated at 37 °C for 15 min. Then, 30 µL of 6 mM L-DOPA was added to the reaction mixture, followed by an incubation of 20 min at 37 °C. During this reaction, L-DOPA is converted to dopachrome (a precursor of melanin), visually detected by the change of color from colorless to orange/brown, resulting in an absorbance increase, recorded spectrophotometrically at 475 nm on a Flex Station 3 Multi-Mode Microplate Reader (Molecular Devices). The inhibition rate was calculated as follows:(1) % Tyrosinase inhibition=(1−A−B/C−D)×100 where A and B represent the final and initial optical densities of the reaction in the presence of the tested compounds, while C and D represent the final and initial optical densities of the reaction in their absence, respectively. […] Experiments were carried out in triplicate and repeated at least 3 times.

mushroom tyrosinase [3] = target: T1, mushroom tyrosinase; test: Kinetic analysis of tyrosinase inhibition; assay type: biochemical
Excerpt: GraphPad Prism 8.2.1 was used to fit the experimental data to these four models, all of them compared with each other. Akaike’s Information Criteria (AICc) approach was used to compare the fit of competitive, uncompetitive, and noncompetitive models, while extra sum-of-squares F test was used to compare the mixed model with the remaining three models, as they are considered to be special cases of the mixed model general equation.
Additionally, the mixed model fitting includes an extra parameter, the alpha (α) value, which represents a useful quantitative indicator of the mechanism of inhibition.
Initial velocity of the enzymatic reaction, V0, was determined from the slope of the curve at the initial phase of the reaction, in the presence of increasing concentrations of each compound (25–100 μM) and L-dopa (0.10–1.0 mM) and then plotted as a function of the corresponding substrate concentration, [S]. GraphPad Prism 8.2.1 program was used to fit the obtained data into the Michaelis–Menten model and to determine the kinetic parameters Vmax and KM (maximal reaction velocity and Michaelis–Menten constant, respectively).

[4] = 50 µM compound, substrate L-DOPA, pH 6.8, 37 °C, mean ± SEM, read-out: % mTYR Inhibition at 50 µM

Q: With `COc1cc(-c2oc3cc(=O)cc4oc(C)cc(c2O[C@@H]2O[C@H](CO)[C@@H](O)[C@H](O)[C@H]2O)c43)cc(OC)c1O` [Compound 8, methylpyranomalvidin-3-O-glucoside] as the molecule, how does the “fraction in quinoidal base form” value [1] read?
A: The value was 80%.

Q: What about the inhibition at 50 µM (mushroom tyrosinase [2]; [4]) of the same molecule?
A: The inhibition at 50 µM was 9.74 ± 3.36%.

Q: Which results are given for `O=C(O)c1cc2c(O[C@@H]3O[C@H](CO)[C@@H](O)[C@H](O)[C@H]3O)c(-c3ccc(O)c(O)c3)oc3cc(=O)cc(o1)c32` [Compound 5, carboxypyranocyanidin-3-O-glucoside]?
A: fraction under the form A^2− ([1]; ref [20],[21]): ~100%; inhibition at 50 µM (mushroom tyrosinase [2]; [4]): 22.1 ± 0.962%; inhibition at 200 µM (mushroom tyrosinase [2]; 200 μM compound, L-DOPA oxidation (Figure 3), read-out: inhibition rate at 200 μM): ~40%

Q: Which Ki (mushroom tyrosinase [3]) does the source give for `Oc1cc(O)c2ccc(-c3ccc(O)c(O)c3)[o+]c2c1` [Compound 1, luteolinidin] here?
A: Its Ki is 15.1 ± 1.18 µM.

Q: And the Vmax (mushroom tyrosinase [3]; L-DOPA, inhibitor 25 μM)?
A: The Vmax was 45.8 µM/min.

Q: What about the Vmax (mushroom tyrosinase [3]; L-DOPA, inhibitor 50 μM) of the same molecule?
A: The Vmax was 45.8 µM/min.

Q: What about the Vmax (mushroom tyrosinase [3]; L-DOPA, inhibitor 75 μM) of the same molecule?
A: Its Vmax is 45.8 µM/min.

Q: What about the Vmax (mushroom tyrosinase [3]; L-DOPA, inhibitor 100 μM) of the same molecule?
A: Its Vmax is 45.8 µM/min.

Q: And the α (mushroom tyrosinase [3]; alpha value from fitting of mixed model equation)?
A: Its α is 21.00.

Q: What about the “Inhibition Type” value (mushroom tyrosinase [3]; diphenolase activity, L-DOPA, model comparison in GraphPad Prism) of the same molecule?
A: Its value is “Competitive”.

Q: And the IC50 (mushroom tyrosinase [2])?
A: The IC50 was 39.2 ± 2.71 µM.

Q: And the inhibition at 50 µM (mushroom tyrosinase [2]; pH 6.8, read-out: % mTYR Inhibition at 50 µM)?
A: Its inhibition at 50 µM is 58.5 ± 2.08%.

Q: Which “fraction in quinoidal base form” value [1] does the source give for `Cc1cc2c(O[C@@H]3O[C@H](CO)[C@@H](O)[C@H](O)[C@H]3O)c(-c3ccc(O)c(O)c3)oc3cc(=O)cc(o1)c32` [Compound 7, methylpyranocyanidin-3-O-glucoside] here?
A: The value was 80%.

Q: What about the inhibition at 50 µM (mushroom tyrosinase [2]; [4]) of the same molecule?
A: The inhibition at 50 µM was 16.2 ± 1.14%.
